Laboratory results from ChEMBL document CHEMBL3044826, “Design, synthesis and biological evaluation of some novel substituted 2-mercapto-3-phenethylquinazolines as antitumor agents” (2013).

Experiments:
Type in all cases: functional
PC-3 = assay: Cytotoxicity against Homo sapiens (human) PC3 cells assessed as growth inhibition at 10 uM after 48 hr by coulter counter analysis; conditions: PC-3, 48 h, read-out: GI
IGROV-1 = assay: Cytotoxicity against Homo sapiens (human) IGROV1 cells assessed as growth inhibition at 10 uM after 48 hr by coulter counter analysis; conditions: IGROV-1, 48 h, read-out: GI
UO-31 = assay: Cytotoxicity against Homo sapiens (human) UO31 cells assessed as growth inhibition at 10 uM after 48 hr by coulter counter analysis; conditions: UO-31, 48 h, read-out: GI
NCI-H522 = assay: Cytotoxicity against Homo sapiens (human) NCI-H522 cells assessed as growth inhibition at 10 uM after 48 hr by coulter counter analysis; conditions: NCI-H522, 48 h, read-out: GI
T47D = assay: Cytotoxicity against Homo sapiens (human) T47D cells assessed as growth inhibition at 10 uM after 48 hr by coulter counter analysis; conditions: read-out: GI
OVCAR-3 = assay: Cytotoxicity against Homo sapiens (human) OVCAR3 cells assessed as growth inhibition at 10 uM after 48 hr by coulter counter analysis; conditions: OVCAR-3, 48 h, read-out: GI
MCF7 = assay: Cytotoxicity against Homo sapiens (human) MCF7 cells assessed as growth inhibition at 10 uM after 48 hr by coulter counter analysis; conditions: MCF7, 48 h, read-out: GI
SK-OV-3 = assay: Cytotoxicity against Homo sapiens (human) SKOV3 cells assessed as growth inhibition at 10 uM after 48 hr by coulter counter analysis; conditions: SK-OV-3, 48 h, read-out: GI
NCI-H226 = assay: Cytotoxicity against Homo sapiens (human) NCI-H226 cells assessed as growth inhibition at 10 uM after 48 hr by coulter counter analysis; conditions: NCI-H226, 48 h, read-out: GI
DU-145 = assay: Cytotoxicity against Homo sapiens (human) DU145 cells assessed as growth inhibition at 10 uM after 48 hr by coulter counter analysis; conditions: DU-145, 48 h, read-out: GI
BT-549 = assay: Cytotoxicity against Homo sapiens (human) BT549 cells assessed as growth inhibition at 10 uM after 48 hr by coulter counter analysis; conditions: BT-549, 48 h, read-out: GI
COLO 205 = assay: Cytotoxicity against Homo sapiens (human) COLO205 cells assessed as growth inhibition at 10 uM after 48 hr by coulter counter analysis; conditions: COLO 205, 48 h, read-out: GI
A498 = assay: Cytotoxicity against Homo sapiens (human) A498 cells assessed as growth inhibition at 10 uM after 48 hr by coulter counter analysis; conditions: A498, 48 h, read-out: GI
SNB-19 = assay: Cytotoxicity against Homo sapiens (human) SNB19 cells assessed as growth inhibition at 10 uM after 48 hr by coulter counter analysis; conditions: SNB-19, 48 h, read-out: GI
NCI-H460 = assay: Cytotoxicity against Homo sapiens (human) NCI-H460 cells assessed as growth inhibition at 10 uM after 48 hr by coulter counter analysis; conditions: NCI-H460, 48 h, read-out: GI
UACC-257 = assay: Cytotoxicity against Homo sapiens (human) UACC257 cells assessed as growth inhibition at 10 uM after 48 hr by coulter counter analysis; conditions: UACC-257, 48 h, read-out: GI
786-0 = assay: Cytotoxicity against Homo sapiens (human) 786-0 cells assessed as growth inhibition at 10 uM after 48 hr by coulter counter analysis; conditions: 786-0, 48 h, read-out: GI
CCRF-CEM = assay: Cytotoxicity against Homo sapiens (human) CCRF-CEM cells assessed as growth inhibition at 10 uM after 48 hr by coulter counter analysis; conditions: read-out: GI
Hs-578T = assay: Cytotoxicity against Homo sapiens (human) Hs578T cells assessed as growth inhibition at 10 uM after 48 hr by coulter counter analysis; conditions: read-out: GI
MOLT-4 = assay: Cytotoxicity against Homo sapiens (human) MOLT4 cells assessed as growth inhibition at 10 uM after 48 hr by coulter counter analysis; conditions: MOLT-4, 48 h, read-out: GI
HL-60(TB) = assay: Cytotoxicity against Homo sapiens (human) HL-60(TB) cells assessed as growth inhibition at 10 uM after 48 hr by coulter counter analysis; conditions: HL-60, 48 h, read-out: GI

| SMILES | inhibition of growth at 10 µM (PC-3) | inhibition of growth at 10 µM (IGROV-1) | inhibition of growth at 10 µM (UO-31) | inhibition of growth at 10 µM (NCI-H522) | inhibition of growth at 10 µM (T47D) | inhibition of growth at 10 µM (OVCAR-3) | inhibition of growth at 10 µM (MCF7) | inhibition of growth at 10 µM (SK-OV-3) | inhibition of growth at 10 µM (NCI-H226) | inhibition of growth at 10 µM (DU-145) | inhibition of growth at 10 µM (BT-549) | inhibition of growth at 10 µM (COLO 205) | inhibition of growth at 10 µM (A498) | inhibition of growth at 10 µM (SNB-19) | inhibition of growth at 10 µM (NCI-H460) | inhibition of growth at 10 µM (UACC-257) | inhibition of growth at 10 µM (786-0) | inhibition of growth at 10 µM (CCRF-CEM) | inhibition of growth at 10 µM (Hs-578T) | further results |
| --- | --- | --- | --- | --- | --- | --- | --- | --- | --- | --- | --- | --- | --- | --- | --- | --- | --- | --- | --- | --- |
| O=C1c2ccccc2C(=O)N1CCCSc1nc2ccccc2c(=O)n1CCc1ccccc1 | 51% | < 10% | 19% | 13% | 30% | < 10% | < 10% | 12% | < 10% | < 10% | < 10% | < 10% | 20% | < 10% | < 10% | < 10% | 13% |  |  |  |
| O=c1c2ccccc2nc(SCc2nnc(S)n2Cc2ccccc2)n1CCc1ccccc1 | 12% | < 10% | < 10% | 46% | 38% | < 10% | 27% | < 10% | 22% | < 10% | < 10% | < 10% | < 10% | < 10% |  | < 10% | < 10% | 13% | < 10% |  |
| O=c1c2ccccc2nc(SCc2nnc(S)n2-c2ccccc2)n1CCc1ccccc1 | 30% | 16% | 30% | < 10% | 38% | < 10% | 28% | < 10% | < 10% | < 10% | < 10% | < 10% | 41% | < 10% | < 10% |  | < 10% | 28% | < 10% |  |
| COc1ccc(-n2c(S)nnc2CSc2nc3ccccc3c(=O)n2CCc2ccccc2)cc1 | 30% | 16% | 30% | < 10% | < 10% | < 10% | 28% | < 10% | < 10% | < 10% | < 10% | < 10% | 51% | < 10% | < 10% | < 10% | < 10% | 13% | < 10% |  |
| O=c1c2ccccc2nc(SCCN2CCOCC2)n1CCc1ccccc1 | 14% | < 10% | 14% | < 10% |  | < 10% | < 10% | < 10% | < 10% | < 10% | < 10% | < 10% | < 10% | < 10% | < 10% | < 10% | < 10% |  | < 10% |  |
| O=C(CSc1nc2ccccc2c(=O)n1CCc1ccccc1)c1ccc(F)cc1 | 13% | 21% | 42% | < 10% | 18% | < 10% | < 10% | < 10% | < 10% | < 10% | < 10% | < 10% | < 10% | < 10% | < 10% | < 10% | 32% |  | 25% |  |
| O=c1c2ccccc2nc(SCc2ccc([N+](=O)[O-])cc2)n1CCc1ccccc1 | < 10% | < 10% | < 10% | < 10% | 15% | < 10% | < 10% | < 10% |  | 24% | < 10% | < 10% | < 10% | < 10% | < 10% | < 10% | < 10% |  | 19% |  |
| CSc1nc2ccccc2c(=O)n1CCc1ccccc1 | 33% | 24% | 37% | < 10% | 59% | < 10% | 34% | < 10% | 11% | < 10% | < 10% | 19% | 18% | < 10% | < 10% | < 10% |  |  | 14% |  |
| O=C(CSc1nc2ccccc2c(=O)n1CCc1ccccc1)c1ccccc1 | 14% | < 10% | 22% | 11% | < 10% | < 10% | < 10% | < 10% | < 10% | < 10% | < 10% | < 10% | 46% | < 10% | < 10% | < 10% | < 10% |  | < 10% |  |
| O=c1c2ccccc2[nH]c(=S)n1CCc1ccccc1 | 13% | < 10% | 33% | < 10% | < 10% | < 10% | 31% | < 10% | < 10% | < 10% | < 10% | < 10% | 46% | < 10% | < 10% | < 10% | < 10% | 16% | < 10% | inhibition of growth at 10 µM (MOLT-4): 23%; inhibition of growth at 10 µM (HL-60(TB)): 11% |
| O=c1c2ccccc2nc(SCCN2CCCCC2)n1CCc1ccccc1 | < 10% | 22% | 43% | 11% | 35% | < 10% | 37% | < 10% | < 10% | 11% | 14% | 25% | 17% | < 10% | < 10% | < 10% | 14% |  | < 10% |  |
